Test results: ChEMBL document CHEMBL1138453, “Synthesis and SAR of 1,2,3,4-tetrahydroisoquinolin-1-ones as novel G-protein-coupled receptor 40 (GPR40) antagonists” (Bioorg Med Chem Lett, 2009)
pIC50: −log10 of the molar value.

Experiments:
[1] = target: Free fatty acid receptor 1 (Homo sapiens, UniProt O14842); test: Antagonist activity at human GPR40 expressed HEK293 cells assessed as effect on intracellular calcium concentration by FLIPR assay; assay type: functional, cell-based
Liver microsomes [2] = test: Metabolic stability in rat liver microsomes assessed as clearance; assay type: ADME, Microsome
Liver microsomes [3] = test: (§1) Metabolic stability in human liver microsomes assessed as clearance; assay type: ADME, Microsome; settings: microsomes
Rattus norvegicus [4] = test: Clearance in iv dosed Sprague-Dawley rat; assay type: ADME, organism-based; settings: in vivo
[5] = Drug level in bile of iv dosed bile duct cannulated rat; assay type: ADME, organism-based; settings: read-out: Drug uptake
Canis familiaris = test: Clearance in iv dosed dog; assay type: ADME, organism-based, Canis lupus familiaris; settings: in vivo
Rattus norvegicus [6] = test: Clearance in iv dosed bile duct cannulated rat; assay type: ADME, organism-based; settings: in vivo
[7] = Metabolic stability in dog liver microsomes assessed as clearance; assay type: ADME, Canis lupus familiaris, Microsome
[8] = Permeability from basolateral to apical side of the human Caco-2 membrane; assay type: ADME, cell-based; settings: read-out: permeability
[9] = Volume of distribution in iv dosed Sprague-Dawley rat; assay type: ADME, organism-based; settings: in vivo
[10] = Half life in iv dosed Sprague-Dawley rat; assay type: ADME, organism-based; settings: in vivo
[11] = Permeability from apical to basolateral side of the human Caco-2 membrane; assay type: ADME, cell-based; settings: read-out: permeability
[12] = as §1; assay type: ADME, Microsome; settings: liver microsomes

Free fatty acid receptor 1, sequence (O14842 whole entry): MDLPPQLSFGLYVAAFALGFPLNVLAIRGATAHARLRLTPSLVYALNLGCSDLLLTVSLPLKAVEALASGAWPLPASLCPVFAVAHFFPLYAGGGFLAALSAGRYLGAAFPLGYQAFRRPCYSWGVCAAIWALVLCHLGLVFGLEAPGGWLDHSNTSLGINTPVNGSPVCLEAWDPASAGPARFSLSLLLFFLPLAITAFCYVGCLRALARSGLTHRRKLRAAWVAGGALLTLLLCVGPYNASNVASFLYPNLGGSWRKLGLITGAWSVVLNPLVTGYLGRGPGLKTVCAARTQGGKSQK

CCCN1C(=O)c2ccccc2[C@@H](C(=O)O)[C@@H]1c1ccc(OC)cc1
pIC50 [1]: 5.68
clearance (Liver microsomes [2]): < 14 µL/min/mg
clearance (Liver microsomes [3]): < 8 µL/min/mg

CCCN1C(=O)c2ccccc2[C@@H](C(=O)O)[C@@H]1c1ccc(OCc2ccccc2)cc1
pIC50 [1]: 7.02
clearance (Liver microsomes [2]): < 16 µL/min/mg
clearance (Rattus norvegicus [4]): 4.97 L/h/kg
clearance (Liver microsomes [3]): < 8 µL/min/mg

CCCN1C(=O)c2ccccc2[C@@H](C(=O)O)[C@@H]1c1ccc(Oc2cc(Cl)cc(Cl)c2)cc1
dose excreted [5]: 64.6%
clearance (Canis familiaris): 0.444 L/h/kg
clearance (Rattus norvegicus [6]): 1.96 L/h/kg
microsomal CLint [7]: 2.99 µL/min/mg

O=C(O)[C@@H]1c2ccccc2C(=O)N(CC2CC2)[C@H]1c1ccc(Oc2ccccc2)cc1
pIC50 [1]: 8.40
clearance (Liver microsomes [2]): 120 µL/min/mg

CCCN1C(=O)c2ccccc2[C@@H](C(=O)O)[C@@H]1c1ccc(Oc2ccc(C(F)(F)F)cn2)cc1
pIC50 [1]: 7.54
clearance (Liver microsomes [2]): < 14 µL/min/mg
clearance (Liver microsomes [3]): < 8 µL/min/mg

CCCN1C(=O)c2ccccc2[C@@H](C(=O)O)[C@@H]1c1ccc(Oc2cc(C)cc(C)c2)cc1
pIC50 [1]: 8.70
clearance (Liver microsomes [2]): 46 µL/min/mg
clearance (Liver microsomes [3]): 21 µL/min/mg

CCCN1C(=O)c2ccccc2[C@@H](C(=O)O)[C@@H]1c1ccc(Oc2ccc(C)c(C)c2)cc1
pIC50 [1]: 8.52
clearance (Liver microsomes [2]): < 14 µL/min/mg
clearance (Liver microsomes [3]): < 8 µL/min/mg

CCCN1C(=O)c2ccccc2[C@@H](C(=O)O)[C@@H]1c1cc2ccccc2o1
pIC50 [1]: 6.92
clearance (Liver microsomes [2]): 18 µL/min/mg
clearance (Rattus norvegicus [4]): 0.18 L/h/kg

CCCN1C(=O)c2ccccc2[C@@H](C(=O)O)[C@@H]1c1cnc(O[C@H]2CC[C@@H](C)CC2)nc1
dose excreted [5]: 69.9%
clearance (Rattus norvegicus [6]): 8.16 L/h/kg

CCC(CC)CN1C(=O)c2ccccc2[C@@H](C(=O)O)[C@@H]1c1nc2ccccc2s1
pIC50 [1]: 8.00
clearance (Liver microsomes [2]): < 18 µL/min/mg

CN1C(=O)c2ccccc2[C@@H](C(=O)O)[C@@H]1c1ccc(Oc2ccccc2)cc1
pIC50 [1]: 6.81
clearance (Liver microsomes [2]): 27 µL/min/mg

CCN1C(=O)c2ccccc2[C@@H](C(=O)O)[C@@H]1c1ccc(Oc2ccccc2)cc1
dose excreted [5]: 13.9%
clearance (Rattus norvegicus [6]): 6.66 L/h/kg
pIC50 [1]: 7.92
clearance (Liver microsomes [2]): 97 µL/min/mg
clearance (Liver microsomes [3]): < 9 µL/min/mg

CCCN1C(=O)c2ccccc2[C@@H](C(=O)O)[C@@H]1c1ccc(O[C@H]2CC[C@@H](C)CC2)cc1
dose excreted [5]: 22.9%
clearance (Rattus norvegicus [6]): 5.07 L/h/kg
pIC50 [1]: 8.00
clearance (Liver microsomes [2]): 274 µL/min/mg
clearance (Liver microsomes [3]): < 12 µL/min/mg

CC[C@H](C)CN1C(=O)c2ccccc2[C@@H](C(=O)O)[C@@H]1c1cc2ccccc2o1
Papp B→A [8]: 187 nm/s
Vd [9]: 1.1 L/kg
half-life [10]: 5.4 h
pIC50 [1]: 7.70
clearance (Liver microsomes [2]): < 14.1 µL/min/mg
clearance (Rattus norvegicus [4]): 0.258 L/h/kg
Papp A→B [11]: 120 nm/s
microsomal CLint [12]: < 8 µL/min/mg

CC[C@H](C)CN1C(=O)c2ccccc2[C@@H](C(=O)O)[C@@H]1c1ccc(Cl)c(Cl)c1
pIC50 [1]: 7.89
clearance (Liver microsomes [2]): < 14 µL/min/mg

CCC(CC)CN1C(=O)c2ccccc2[C@@H](C(=O)O)[C@@H]1c1ccc(Cl)c(Cl)c1
pIC50 [1]: 8.00
clearance (Liver microsomes [2]): 27 µL/min/mg

CCCN1C(=O)c2ccccc2[C@@H](C(=O)O)[C@@H]1c1cccc(Cl)c1
pIC50 [1]: 6.64
clearance (Liver microsomes [2]): < 14 µL/min/mg
clearance (Rattus norvegicus [4]): 0.178 L/h/kg

CCCN1C(=O)c2ccccc2[C@@H](C(=O)O)[C@@H]1c1ccc(Cl)c(Cl)c1
pIC50 [1]: 7.05
clearance (Liver microsomes [2]): < 14 µL/min/mg
